Data from patent US9062124B2, “GIP-based mixed agonists for treatment of metabolic disorders and obesity” (priority 2008, dated 2015).
Where two headings read alike, the source gives them in different places. Where a SMILES comes first, the peptide text is derived from it. Bridges are numbered along the chain shown (N, C = ends). Where no end group is shown, it is not given here. [ ]: non-standard residue; d: D form. PEG 40 kDa = PEG (40 kDa) covalently attached to Cys; Dab = NCC[C@H](N)C(=O)O; Aib = CC(C)(N)C(=O)O

What was measured:
Format in all cases: cell-based
glucagon receptor = biological target: T1, glucagon receptor (Homo sapiens, UniProt P47871); assay: cAMP synthesis functional assay (firefly luciferase reporter in HEK293 cells), glucagon receptor
T1 construct: expressed in transfected cells; host or cells: HEK293

GLP-1 receptor = biological target: T2, GLP-1 receptor (Homo sapiens, UniProt P43220); assay: cAMP synthesis functional assay (firefly luciferase reporter in HEK293 cells), GLP-1 receptor
T2 construct: expressed in transfected cells; host or cells: HEK293

GIP receptor = biological target: T3, GIP receptor (Homo sapiens, UniProt P48546); assay: cAMP synthesis functional assay (firefly luciferase reporter in HEK293 cells), GIP receptor
T3 construct: expressed in transfected cells; host or cells: HEK293
T3 sequence (P48546 22-466): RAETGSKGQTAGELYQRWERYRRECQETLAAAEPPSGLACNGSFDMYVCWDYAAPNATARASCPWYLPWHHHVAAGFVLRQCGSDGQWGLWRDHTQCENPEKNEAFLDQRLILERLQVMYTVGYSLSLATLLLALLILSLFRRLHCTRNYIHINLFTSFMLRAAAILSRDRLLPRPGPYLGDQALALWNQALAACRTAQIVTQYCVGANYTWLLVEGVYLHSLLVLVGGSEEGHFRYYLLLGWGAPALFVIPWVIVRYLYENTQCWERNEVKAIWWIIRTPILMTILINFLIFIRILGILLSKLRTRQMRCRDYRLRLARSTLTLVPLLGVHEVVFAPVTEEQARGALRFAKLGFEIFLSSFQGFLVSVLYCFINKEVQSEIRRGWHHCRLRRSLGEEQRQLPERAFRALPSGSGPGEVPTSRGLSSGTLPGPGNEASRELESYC

[1] = tested on: glucagon receptor, GLP-1 receptor or GIP receptor; assay: Agonist profile across receptors assigned from the cAMP reporter assay data; settings: assigned from the in vitro EC50 data of Tables 1-4
[2] = Table 1, relative to the native hormone of the indicated receptor
[3] = relative to the standard (Std.) EC50 of the same run

T2 sequence (P43220 24-463, species assumed): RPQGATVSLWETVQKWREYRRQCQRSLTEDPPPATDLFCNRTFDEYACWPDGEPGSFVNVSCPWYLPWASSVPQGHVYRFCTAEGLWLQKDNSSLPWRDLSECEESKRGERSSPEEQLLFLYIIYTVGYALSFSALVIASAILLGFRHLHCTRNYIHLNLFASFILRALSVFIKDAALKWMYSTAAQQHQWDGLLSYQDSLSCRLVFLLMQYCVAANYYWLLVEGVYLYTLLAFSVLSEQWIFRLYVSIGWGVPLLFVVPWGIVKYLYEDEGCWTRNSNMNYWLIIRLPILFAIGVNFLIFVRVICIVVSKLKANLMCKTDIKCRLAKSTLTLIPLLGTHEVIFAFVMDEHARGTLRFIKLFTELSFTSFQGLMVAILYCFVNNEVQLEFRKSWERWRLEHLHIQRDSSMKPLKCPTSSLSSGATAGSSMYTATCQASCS
T1 sequence (P47871 26-477): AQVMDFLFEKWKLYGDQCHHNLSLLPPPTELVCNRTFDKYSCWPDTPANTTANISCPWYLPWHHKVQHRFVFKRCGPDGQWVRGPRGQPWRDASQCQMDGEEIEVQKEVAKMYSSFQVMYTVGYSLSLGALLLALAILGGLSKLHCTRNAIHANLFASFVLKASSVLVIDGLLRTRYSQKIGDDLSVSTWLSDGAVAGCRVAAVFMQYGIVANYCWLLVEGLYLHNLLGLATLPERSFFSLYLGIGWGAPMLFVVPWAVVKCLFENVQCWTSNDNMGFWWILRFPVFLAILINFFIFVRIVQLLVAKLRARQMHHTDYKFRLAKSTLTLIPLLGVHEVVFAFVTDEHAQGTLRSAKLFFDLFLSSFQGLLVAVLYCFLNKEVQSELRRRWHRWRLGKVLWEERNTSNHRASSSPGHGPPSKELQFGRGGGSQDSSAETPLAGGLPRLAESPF

Molecule	Glucagon Receptor relative activity (glucagon receptor; [2]) [%]	GLP-1 Receptor relative activity (GLP-1 receptor; [2]) [%]	GIP Receptor relative activity (GIP receptor; [2]) [%]	receptor activity profile (glucagon / GLP-1 / GIP agonism) [1]	other results
CC[C@H](C)[C@H](NC(=O)[C@H](CO)NC(=O)[C@H](Cc1ccc(O)cc1)NC(=O)[C@H](CC(=O)O)NC(=O)[C@H](CO)NC(=O)[C@@H](NC(=O)[C@H](Cc1ccccc1)NC(=O)[C@@H](NC(=O)CNC(=O)[C@H](CCC(=O)O)NC(=O)C(C)(C)NC(=O)[C@@H](N)Cc1ccc(O)cc1)[C@@H](C)O)[C@@H](C)O)C(=O)N[C@@H](Cc1ccc(O)cc1)C(=O)N[C@@H](CC(C)C)C(=O)N[C@@H](CC(=O)O)C(=O)N[C@H]1CCC(=O)NCCCC[C@@H](C(=O)N[C@@H](CCC(=O)O)C(=O)N[C@@H](Cc2ccccc2)C(=O)N[C@H](C(=O)N[C@@H](CC(N)=O)C(=O)N[C@@H](Cc2c[nH]c3ccccc23)C(=O)N[C@@H](CC(C)C)C(=O)N[C@@H](CC(C)C)C(=O)N[C@@H](C)C(=O)NCC(=O)NCC(=O)N2CCC[C@H]2C(=O)N[C@@H](CO)C(=O)N[C@@H](CO)C(=O)NCC(=O)N[C@@H](C)C(=O)N2CCC[C@H]2C(=O)N2CCC[C@H]2C(=O)N2CCC[C@H]2C(=O)N[C@@H](CO)C(=O)N[C@@H](CS)C(N)=O)C(C)C)NC(=O)[C@H](C)NC(=O)[C@H](C)NC(=O)[C@H](CCC(N)=O)NC1=O [mt-174] (H-Y[Aib]EGTFTSDYSIYLDEQAAKEFVNWLLAGGPSSGAPPPSC-NH2; lactam 16-20; N-terminus assumed)	0.06	117.65	95.65	exemplary GLP-1/GIP co-agonist peptides	–
CC[C@H](C)[C@H](NC(=O)[C@H](CO)NC(=O)[C@H](Cc1ccc(O)cc1)NC(=O)[C@H](CC(=O)O)NC(=O)[C@H](CO)NC(=O)[C@@H](NC(=O)[C@H](Cc1ccccc1)NC(=O)[C@@H](NC(=O)CNC(=O)[C@H](CCC(N)=O)NC(=O)C(C)(C)NC(=O)[C@@H](N)Cc1ccc(O)cc1)[C@@H](C)O)[C@@H](C)O)C(=O)N[C@@H](Cc1ccc(O)cc1)C(=O)N[C@@H](CC(C)C)C(=O)N[C@@H](CC(=O)O)C(=O)N[C@H]1CCC(=O)NCCCC[C@@H](C(=O)N[C@@H](CCC(=O)O)C(=O)N[C@@H](Cc2ccccc2)C(=O)N[C@H](C(=O)N[C@@H](CC(N)=O)C(=O)N[C@@H](Cc2c[nH]c3ccccc23)C(=O)N[C@@H](CC(C)C)C(=O)N[C@@H](CC(C)C)C(=O)N[C@@H](C)C(=O)NCC(=O)NCC(=O)N2CCC[C@H]2C(=O)N[C@@H](CO)C(=O)N[C@@H](CO)C(=O)NCC(=O)N[C@@H](C)C(=O)N2CCC[C@H]2C(=O)N2CCC[C@H]2C(=O)N2CCC[C@H]2C(=O)N[C@@H](CO)C(N)=O)C(C)C)NC(=O)[C@H](C)NC(=O)[C@H](C)NC(=O)[C@H](CCC(N)=O)NC1=O [mt-152] (H-Y[Aib]QGTFTSDYSIYLDEQAAKEFVNWLLAGGPSSGAPPPS-NH2; lactam 16-20; N-terminus assumed)	36.52	168.75	41.19	exemplary GLP-1/GIP/glucagon triagonist peptides	–
CC[C@H](C)[C@H](NC(=O)[C@H](CO)NC(=O)[C@H](Cc1ccc(O)cc1)NC(=O)[C@H](CC(=O)O)NC(=O)[C@H](CO)NC(=O)[C@@H](NC(=O)[C@H](Cc1ccccc1)NC(=O)[C@@H](NC(=O)CNC(=O)[C@H](CCC(N)=O)NC(=O)C(C)(C)NC(=O)[C@@H](N)Cc1ccc(O)cc1)[C@@H](C)O)[C@@H](C)O)C(=O)N[C@@H](Cc1ccc(O)cc1)C(=O)N[C@@H](CC(C)C)C(=O)N[C@@H](CC(=O)O)C(=O)NC(C)(C)C(=O)N[C@@H](CCC(N)=O)C(=O)N[C@@H](C)C(=O)N[C@@H](C)C(=O)NC(C)(C)C(=O)N[C@@H](CCC(=O)O)C(=O)N[C@@H](Cc1ccccc1)C(=O)N[C@H](C(=O)N[C@@H](CC(N)=O)C(=O)N[C@@H](Cc1c[nH]c2ccccc12)C(=O)N[C@@H](CC(C)C)C(=O)N[C@@H](CC(C)C)C(=O)N[C@@H](C)C(=O)NCC(=O)NCC(=O)N1CCC[C@H]1C(=O)N[C@@H](CO)C(=O)N[C@@H](CO)C(=O)NCC(=O)N[C@@H](C)C(=O)N1CCC[C@H]1C(=O)N1CCC[C@H]1C(=O)N1CCC[C@H]1C(=O)N[C@@H](CO)C(=O)N[C@@H](CS)C(N)=O)C(C)C [mt-250] (H-Y[Aib]QGTFTSDYSIYLD[Aib]QAA[Aib]EFVNWLLAGGPSSGAPPPSC-NH2; N-terminus assumed)	–	–	–	exhibited activities of glucagon/GLP-1/GIP triagonists	Glucagon Receptor relative activity (glucagon receptor; Table 2): 6.30%; GLP-1 Receptor relative activity (GLP-1 receptor; Table 2): 63.64%; GIP Receptor relative activity (GIP receptor; Table 2): 30.65%
CC[C@H](C)[C@H](NC(=O)[C@H](CO)NC(=O)[C@H](Cc1ccc(O)cc1)NC(=O)[C@H](CC(=O)O)NC(=O)[C@H](CO)NC(=O)[C@@H](NC(=O)[C@H](Cc1ccccc1)NC(=O)[C@@H](NC(=O)CNC(=O)[C@H](CCC(N)=O)NC(=O)C(C)(C)NC(=O)[C@@H](N)Cc1ccc(O)cc1)[C@@H](C)O)[C@@H](C)O)C(=O)N[C@@H](Cc1ccc(O)cc1)C(=O)N[C@@H](CC(C)C)C(=O)N[C@@H](CC(=O)O)C(=O)N[C@@H](CCN)C(=O)N[C@@H](CCC(N)=O)C(=O)N[C@@H](C)C(=O)N[C@@H](C)C(=O)NC(C)(C)C(=O)N[C@@H](CCC(=O)O)C(=O)N[C@@H](Cc1ccccc1)C(=O)N[C@H](C(=O)N[C@@H](CC(N)=O)C(=O)N[C@@H](Cc1c[nH]c2ccccc12)C(=O)N[C@@H](CC(C)C)C(=O)N[C@@H](CC(C)C)C(=O)N[C@@H](C)C(=O)NCC(=O)NCC(=O)N1CCC[C@H]1C(=O)N[C@@H](CO)C(=O)N[C@@H](CO)C(=O)NCC(=O)N[C@@H](C)C(=O)N1CCC[C@H]1C(=O)N1CCC[C@H]1C(=O)N1CCC[C@H]1C(=O)N[C@@H](CO)C(=O)N[C@@H](CS)C(N)=O)C(C)C [mt-276] (H-Y[Aib]QGTFTSDYSIYLD[Dab]QAA[Aib]EFVNWLLAGGPSSGAPPPSC-NH2; N-terminus assumed)	–	–	–	exhibited activity at the GIP, GLP-1, and glucagon receptors	Glucagon Receptor relative activity (glucagon receptor; [3]): 77.65%; GLP-1 Receptor relative activity (GLP-1 receptor; [3]): 107.58%; EC50 (GIP receptor; GIP Receptor EC50, cAMP luciferase reporter assay as in Example 16): 0.008 nM; GIP Receptor relative activity (GIP receptor; [3]): 173.75%
mt-179: glucagon analog peptide, C-terminal amide; called GIP/glucagon co-agonist and triagonist (Y[Aib]QGTFISDYSIYLDEQAAKEFVC(PEG 40 kDa)WLLAG-NH2; lactam 16-20)	2.92	7.50	3.74	exemplary GLP-1/GIP/glucagon triagonist peptides	EC50 (glucagon receptor; read-out: Glucagon Receptor EC50, Table 1): 1.27 nM; EC50 (GLP-1 receptor; read-out: GLP-1 Receptor EC50, Table 1): 0.26 nM; EC50 (GIP receptor; read-out: GIP Receptor EC50, Table 1): 0.473 nM
CC[C@H](C)[C@H](NC(=O)[C@H](Cc1ccccc1)NC(=O)[C@H](CCC(=O)O)NC(=O)[C@@H]1CCCCNC(=O)CC[C@H](NC(=O)[C@H](CC(=O)O)NC(=O)[C@H](CC(C)C)NC(=O)[C@H](Cc2ccc(O)cc2)NC(=O)[C@@H](NC(=O)[C@H](CO)NC(=O)[C@H](Cc2ccc(O)cc2)NC(=O)[C@H](CC(=O)O)NC(=O)[C@H](CO)NC(=O)[C@@H](NC(=O)[C@H](Cc2ccccc2)NC(=O)[C@@H](NC(=O)CNC(=O)[C@H](CCC(=O)O)NC(=O)[C@H](CO)NC(=O)[C@@H](N)Cc2ccc(O)cc2)[C@@H](C)O)[C@@H](C)O)[C@@H](C)CC)C(=O)N[C@@H](CCC(N)=O)C(=O)N[C@@H](C)C(=O)N[C@@H](C)C(=O)N1)C(=O)N[C@@H](C)C(=O)N[C@@H](Cc1c[nH]c2ccccc12)C(=O)N[C@@H](CC(C)C)C(=O)N[C@@H](CC(C)C)C(=O)N[C@@H](C)C(=O)NCC(=O)NCC(=O)N1CCC[C@H]1C(=O)N[C@@H](CO)C(=O)N[C@@H](CO)C(=O)NCC(=O)N[C@@H](C)C(=O)N1CCC[C@H]1C(=O)N1CCC[C@H]1C(=O)N1CCC[C@H]1C(=O)N[C@@H](CO)C(N)=O [mt-148] (H-YSEGTFTSDYSIYLDEQAAKEFIAWLLAGGPSSGAPPPS-NH2; lactam 16-20; N-terminus assumed)	2.14	36.22	65.26	exemplary GLP-1/GIP co-agonist peptides	EC50 (GLP-1 receptor; GLP-1 Receptor EC50, nM, Table 1): 0.098 nM
